Test results as given in patent EP2433636A1, “Treatment of Malignant Diseases” (Medizinische Universität Wien, priority 2010, dated 2012).
“Also recorded” adds a separate entry of the source.

Legend:
[1] = tested on: Cyclin D1; test: Cyclin D1 expression by flow cytometry; format: cell-based; conditions: Homo sapiens, 4 h; compared to untreated controls; read-out: Cyclin D1 fluorescence intensity, decrease
Experimental: (§1) Tumour cells were seeded in 10 cm plates and allowed to adhere before treatment with 20 µM compound AZA1 for 4 h before trypsinization and washing with PBS.
(§2) One portion of the cells were then fixed with 70% ethanol for 1h at 4°C, washed with PBS and stained with propidium iodide (PI) puffer with 50 µg/ml DNase-free RNaseA. Cells in different cell cycle stages were determined. The rest of the cells were fixed with Cytofix fixation buffer (BD) for 30 min at 37°C, washed and then permeabilized with Perm buffer III (BD) and stained with Cyclin D1 (anti-human Cyclin D1 antibody set), phospho-Akt (anti-phospho-Akt pT308), phospho-ERK (anti-phospho-ERK1/2 pT202/pY204), phospho-JNK (anti-phospho-JNK pT183/pY185) and phospho-p38 antibodies (anti-phospho-p38 MAPK pT180/pY182) (the latter antibodies were purchased from BD Biosciences). […] were analyzed on a FACScan flow cytometer (BD Biosciences) with an argon laser tuned to 488 nm.

[2] = tested on: CRL-2505 cells; test: Cell cycle distribution by flow cytometry (propidium iodide); format: cell-based, Human; conditions: 24 h; for sub G1 events (M1): untreated 1.47%
Experimental: as §2

[3] = Solubility test in 20-30% DMSO in water; format: physicochemical; conditions: appropriate if 1mM of the compound is soluble in 20-30% DMSO in water; 100 mM stock in 100% DMSO
Experimental: Compounds in powder form were dissolved in 100% DMSO to obtain 100 mM stock solutions of each of the compounds. Solubility of the compounds was then tested by preparing solutions in 20-30% DMSO in water. […] Compounds which were non-soluble in 30% DMSO were regarded as non-soluble. NSC23766 was always used as a reference compound.

[4] = tested on: phospho-p38; test: Phospho-p38 by flow cytometry; format: cell-based, Human; conditions: compared to untreated cells
Experimental: as §1, §2

[5] = tested on: CRL-2505 prostate cancer xenograft; test: Survival study in prostate cancer xenograft bearing mice; format: in vivo, athymic nu/nu (nude) mice
Experimental: (§3) The experiments performed in this study were approved by the Institutional Animal Care and Use Committee at the Vienna Medical University. Pathogen-free, male, 5 week-old athymic nu/nu (nude) mice (Charles River, Sulzfeld, Germany) were weighed, coded and divided into experimental groups of (n = 10) at random. Mice were anesthetized (ketamine hydrochloride/xylazine at 55/7.5 mg/kg i.p.) and 15x10^6 CRL-2505 cells/100 µl PBS were injected s.c. into the left flank (Aharinejad et al., 2004). In a preliminary experiment mice received i.p. injections with 100 µg compound AZA1, AZA2, AZA3, or AZA4 in 100 µl 30% DMSO six days after cell injection for two weeks, control animals received 100 µl 30% DMSO/day (n = 5 for each group). In the main experiment, mice received i.p. injections with 100 µg compound AZA1 in 100 µl 30% DMSO six days after cell injection for two weeks, control animals received 100 µl 30% DMSO/day (n = 10 for each group). Tumour volumes were calculated as length x width^2/2. All animals were sacrificed on day 20.
The survival study was set for three months. Mice were treated with compound AZA1 (n = 10) or 30% DMSO (n = 10) and were euthanized when moribund.
Data were tested for normality using the Shapiro-Wilk test. Groups were compared by nonparametric analysis of variance (ANO-VA, Wilcoxon rank-sum test, Kruskal-Wallis test). All statistical tests were two-sided. The overall survival curves after treatment were analyzed by the Kaplan-Meier survival test. Statistical tests were performed with the use of SAS software (version 9.1.3) and Enterprise Guide (version 4.1, SAS Institute Inc., Cary, NC). Data are expressed as means ± SD. P values of < 0.05 were considered to indicate statistical significance.

[6] = tested on: Pak1; test: Western blot, Pak1 total protein; format: cell-based, Human; conditions: 2 µM for 24h, compared to controls
Experimental: (§4) Cell lysates were prepared (Aharinejad et al., Cancer Res. 62 (2002), 5317-5324 and Cancer Res. 64 (2004), 5378-5384) and 50 µg/lane separated by 9% SDS-PAGE prior to electrophoretic transfer onto Hybond C super (Amersham Pharmacia Biotech, Buckinghamshire, UK). The blots were probed with antibodies against PAK1 and phospho-Pak1 (pS144)/Pak2 (pS141) (Cell Signaling Technology, Danvers, MA) before incubation with horseradish peroxidase-conjugated secondary antibodies (Amersham Pharmacia Biotech). Proteins were immunodetected by chemiluminescence (Supersignal-West- Femto, Pierce, Rockford, IL) and quantified by Image Quant 5.0 software (Molecular Dynamics, Sunnyvale, CA).

[7] = tested on: phospho-JNK; test: Phospho-JNK by flow cytometry; format: cell-based, Human; conditions: compared to untreated cells
Experimental: as §1, §2

[8] = tested on: CRL-2505 cells; test: Apoptosis by flow cytometry (Annexin V-FITC and PI); format: cell-based, Human; conditions: 3 h after treatment
Excerpt: Then the effect of Rac1 inhibition on the cell cycle regulatory protein Cyclin D1 was examined. […] Next, flow cytometry was used to assess apoptosis in response to Rac1 inhibition.

[9] = tested on: CRL-2505 prostate cancer cells; test: WST-1 cell proliferation assay; format: cell-based, Human; conditions: 72 hours of incubation with 1, 2, 5, 10 and 25 µM, compared to untreated cells
Experimental: Human CRL-2505 cells were seeded in 96-well plates at a density of 1x10^4 cells/well in culture medium. Cells were incubated with 1, 2, 5, 10, 25 µM compound AZA1. Cell proliferation was determined 24, 48 or 72 h after treatment using the WST-1 reagent (Roche Diagnostics, Indianapolis, IN) according to the manufacturer's protocol (Zins et al., Cancer Res. 67 (2007), 1038-1045). Each experiment was repeated three times.

[10] = tested on: phospho-Pak1 (pS144)/Pak2 (pS141); test: Western blot, phospho-Pak1/2; format: cell-based, Human; conditions: 2 µM for 24h, compared to controls
Experimental: as §4

[11] = tested on: phospho-Akt; test: Phospho-Akt by flow cytometry; format: cell-based, Human
Experimental: as §2

[12] = tested on: Rac 1, 2, 3; test: Rac 1, 2, 3 activation assay (G-LISA) after EGF stimulation; format: cell-based, Human
Experimental: Prostate cancer cells were seeded in 6-well plates and starved for 20 h. Cells were incubated with Rac1 small molecule inhibitor AZA1 for 4 h and then stimulated with 50 ng/ml epidermal growth factor (EGF) (R&D systems) for 1 min 30 sec and Rac activation was then measured with the G-LISA method (Rac 1, 2, 3 activation assay, colorimetric format, Cytoskeleton) according to the manufacturer's protocol.

[13] = tested on: Prostate cancer cells; test: In vitro migration assay (Boyden chamber); format: cell-based, Human; conditions: compared to untreated controls
Experimental: Prostate cancer cells (5x10^4 in 1 ml DMEM with 10% FCS) were added to the top of each Boyden migration chamber (8-µm, 12-well plate format; BD Biosciences, Palo Alto, CA). Cells were incubated with 1, 2, and 5 µM of compound AZA1. […] Cells from the upper side of the membrane were removed with cotton swabs. The membranes were excised using a scalpel, inverted and transferred to a PBS filled tissue culture well. Membranes were then fixed in methanol for 2 min at -20°C. After washing in PBS, membranes were stained with 1 µg/ml 4'-6-Diamidino-2-phenylindole (DAPI) in PBS for 10 min at RT and washed again in PBS. Membranes were then embedded in Cityfluor (Cityfluor, Leicester, UK) on glass slides under coverslips. Representative sectors of migrated prostate cancer cells were counted under a fluorescence microscope. Each experiment was performed in triplicate.

[14] = tested on: CRL-2505 prostate cancer xenograft; test: Human prostate cancer xenograft tumour model; format: in vivo, athymic nu/nu (nude) mice
Experimental: as §3, with “In the main experiment, mice received i.p. injections with 100 µg compound AZA1 in 100 µl 30% DMSO six days after cell injection for two weeks, control animals received 100 µl 30% DMSO/day (n = 10 for each group).” left out, “All animals were sacrificed on day 20.” left out
On day 24, tumors were isolated, weighed and the animals were sacrificed. […] Primary antibodies were detected by sequential incubation with appropriate biotinylated secondary antibodies (Vector Laboratories, Burlingame, CA) and peroxidase conjugated streptavidin (Dako), developed with 3, 3'-diaminobenzidine (Vector Laboratories), counter-stained with haemalaun, dehydrated and mounted in DPX (Merck, Darmstadt, Germany) and digitalized images were generated.

[15] = tested on: phospho-ERK; test: Phospho-ERK by flow cytometry; format: cell-based, Human; conditions: compared to untreated cells
Experimental: as §1, §2

[16] = tested on: PC-3; conditions: Rac-hyperactive prostate cancer cells PC-3; cited from earlier work
[17] = tested on: chronic myelogenous leukemia (CML); conditions: in vitro and in vivo; cited from earlier work

Q: With `Cc1cc2cc(Nc3ccnc(Nc4ccc5[nH]c(C)cc5c4)n3)ccc2[nH]1` [AZA1, N*2*,N*4*-Bis-(2-methyl-1H-indol-5-yl)-pyrimidine-2,4-diamine] as the compound, how does the inhibition at 20 µM [1] read?
A: 22%

Q: What about the “sub G1 events (M1)” value ([2]; 1 µM) of the same compound?
A: 8.08%

Q: And the “sub G1 events (M1)” value ([2]; 2 µM)?
A: 9.26%

Q: And the “G2/M (M4) phases” value ([2]; 2 µM, untreated 32.25%)?
A: 28.44%

Q: What about the solubility [3] of the same compound?
A: appropriate solubility

Q: What about the “phosphorylation of p38” value [4] of the same compound?
A: significant decrease

Q: What about the “median time to death” value ([5]; after tumour cell grafting, control 39 ± 15 days) of the same compound?
A: 46 ± 4 days

Q: And the animals still alive ([5]; day 42, when the last control animal died)?
A: 60%

Q: And the survival ([5]; vs. control mice, Kaplan-Meier)?
A: significantly increased

Q: And the Pak1 expression [6]?
A: not changed

Q: What about the “phosphorylation of JNK” value [7] of the same compound?
A: significant decrease

Q: What about the “apoptosis (staining with Annexin V-FITC and PI)” value [8] of the same compound?
A: no significant signs of apoptosis

Q: And the CRL-2505 cell proliferation [9]?
A: significantly reduced

Q: And the “Pak1/2 phosphorylation at serine 144/141” value [10]?
A: significantly reduced

Q: What about the “pAkt at different time points” value ([11]; 5 min to 90 min after treatment) of the same compound?
A: decreased significantly

Q: And the inhibition at 20 µM ([11]; Homo sapiens, 1 h, 20 µM for 60 min (Fig. 4A), compared to untreated cells, read-out: phospho-Akt levels, reduction)?
A: 24%

Q: And the Rac activity ([12]; CRL-2505 cells, 5, 10 and 20 µM, 4 h incubation, then 50 ng/ml EGF)?
A: reduced Rac activity significantly

Q: What about the “Rac inhibiting activity, compared with the other screened compounds or NSC23766” value ([12]; screening of the newly designed compounds, CRL-2505 cells after EGF treatment) of the same compound?
A: improved Rac inhibiting activity when compared to NSC 23766; also recorded: most effective Rac inhibitor

Q: And the cancer cell migration ([13]; 1 µM)?
A: failed to reduce cancer cell migration

Q: What about the cancer cell migration ([13]; 2 µM, 20 h) of the same compound?
A: significantly reduced migration

Q: What about the cancer cell migration ([13]; 5 µM, 20 h) of the same compound?
A: significantly reduced migration

Q: And the “ranking of AZA1 to AZA4 in the in vivo experiments (solubility, lack of toxicity, tumor-suppressive effects)” value ([14]; preliminary experiment, 100 µg i.p. in 30% DMSO, n = 5 per group)?
A: most potent agent

Q: And the “cell proliferation, staining with Ki-67 antibody” value ([14]; tumour tissue sections, day 24)?
A: reduced

Q: And the “activity of ERK (phospho-ERK)” value [15]?
A: not affected

Q: With `CCN(CC)CCCC(C)Nc1ncc(C)c(Nc2ccc3[nH]c(C)cc3c2)n1` (stereo not shown) [Compound 10, N*2*-(4-Diethylamino-1-methyl-butyl)-5-methyl-N*4*-(2-methyl-1H-indol-5-yl)-pyrimidine-2,4-diamine] as the compound, how does the solubility [3] read?
A: appropriate solubility

Q: Which solubility [3] does the source give for `c1cc(Nc2ccc3[nH]ccc3c2)nc(Nc2ccc3[nH]ccc3c2)n1` [Compound 41, N*2*,N*4*-Bis-(1H-indol-5-yl)-pyrimidine-2,4-diamine] here?
A: appropriate solubility

Q: Which solubility [3] does the source give for `c1cc(NCc2ccc3[nH]ccc3c2)nc(Nc2ccc3cc[nH]c3c2)n1` [Compound 55, N*2*-(1H-Indol-6-yl)-N*4*-(1H-indol-5-ylmethyl)-pyrimidine-2,4-diamine] here?
A: appropriate solubility

Q: Which results are given for `CCN(CC)CCCC(C)Nc1nc(C)cc(Nc2ccc3nc(C)cc(N)c3c2)n1` (stereo not shown) [NSC23766, N6-(2-((4-(diethylamino)-1-methylbutyl)amino)-6-methyl-4-pyrimidinyl)-2-methyl-4,6-quinolinediamine]?
A: anchorage independent growth [16]: able to inhibit; invasion [16]: able to inhibit; proliferation [16]: able to inhibit; proliferation of chronic myelogenous leukemia (CML) [17]: inhibited proliferation
